Our source for the Km values is PMC8395317, “The Simple Method of Preparation of Highly Carboxylated Bacterial Cellulose with Ni- and Mg-Ferrite-Based Versatile Magnetic Carrier for Enzyme Immobilization” (International Journal of Molecular Sciences, 2021).

For this experiment, the system named is T1, phospholipase A (PLA, Lecitase Ultra).
T1 construct: gene LIP; one fused chain: T. lanuginosus lipase N-terminal part (1-284) + F. oxysporum phospholipase A1 C-terminal part (285-339); commercial Lecitase Ultra (Sigma-Aldrich), used without further purification; free form
Nature of the experiment: p-nitrophenol release, absorbance […] nm, Michaelis-Menten nonlinear fit. The experiment is classed as biochemical, Thermomyces lanuginosus. Particulars: free enzyme; 0.1 to 1.2 mmol/L pNPB, 50 mmol/L phosphate pH 7.0, 0.004% Triton X-100, 30 °C.

Turning to `CCCC(=O)Oc1ccc([N+](=O)[O-])cc1` [p-nitrophenyl-butyrate], the Km (as a rule, the substrate concentration at which the rate is half of its maximum) is 490 ± 100 µM.
